Measurements as given in paper PMC10849753, “Antiproliferative activity of platinum(II) and copper(II) complexes containing novel biquinoxaline ligands” (Metallomics: Integrated Biometal Science, 2024).

How the values were obtained:
EtBr-bound CT-DNA = test: Fluorescence quenching of EtBr-pretreated CT-DNA (Stern–Volmer); format: binding, calf; parameters: unit not given here; settings: 0 to 160 μM compounds
Procedure: In order to obtain the linear Stern–Volmer quenching constant (Ksv), a Thermo-Scientific Lumina Fluorescence Spectrometer was used to conduct the flourometric measurements of 10 μM ethidium bromide (EtBr)-pretreated CT-DNA solutions in the presence of 0 to 160 μM compounds.[31],[36] The excitation wavelength was adjusted at 478 nm, and emissions ware observed at about 610 nm.

[1] = biological target: T1, human serum albumin (HSA) (Homo sapiens, UniProt P02768); test: HSA fluorescence quenching titration; format: binding; parameters: unit not given here; settings: 1 μM HSA, 0-50 μM complexes
Procedure: Tests involving fluorescence titration were conducted by maintaining the concentration of 1 μM HSA and changing the concentrations of the complexes between 0 and 50 μM in 5 mM Tris HCl buffer. The fluorescence spectral measurements were made at […] to 500 nm after exciting the solution at 280 nm.

[2] = biological target: T1, human serum albumin (HSA); test: HSA thermal denaturation; format: binding; settings: HSA alone 114°C; 280 nm
Procedure: The HSA thermal decomposition was followed at 280 nm upon increasing the temperature from 30°C to 130°C at a 1°C min^−1 rate from the spectral change. In order to better examine the processes involving the interaction of metal complexes and protein structure, viscometric titration was carried out in the same manner as for the nucleic acid.

A172 cells = test: MTT cell viability assay; format: cell-based, human
Procedure: (§1) Cell culture growth conditions: Selected cancer cell lines from different origins, including human glioblastoma A172 (CRL-1620), LN229 (CRL-2611), U87 (HTB-14) cell lines, human cervix HeLa (ATCC, CCL-2), human breast MDA -231 (HTB-26), human prostate PC-3 (ATCC, CRL-1435), human lung A-549 (CCL-185), and non-cancer Chinese hamster ovary CHOK1 cell line (CCL61) (which was used as control) were purchased from American Type Culture Collection (ATCC, USA). These cultures were grown in Dulbecco's modified Eagle's medium-F12 (DMEM/F12, #D0547, Sigma-Aldrich) supplemented with 5% fetal bovine serum (#10500, Gibco) and 1% antibiotic-antimycotic (#15240, Gibco), and incubated at 37°C and 5% CO2. They were harvested and used for the following assays after reaching 70–80% confluency.
(§2) The used cell lines (A172, LN229, U87, HeLa, MDA-231, PC-3, A549, and CHO-K1) were harvested and seeded (6 × 10^3 cells/well) into the 96-well plates and incubated at 37°C and 5% CO2 for 24 h. After that, the synthesized Cu(II) and Pt(II) complexes, at a concentration range of 6.25 to 100 μM in DMEM-F12, were added to the cell monolayers and incubated at 37°C and 5% CO2 for 24, 48, and 72 h. The dose–response relationships of the synthesized complexes were determined by using an MTT colorimetric agent (3-[4,5-dimethylthiazol-2-yl]-2,5-diphenyltetrazolium bromide, #M5655, Sigma-Aldrich), which is reduced by the mitochondrial enzymes of the metabolically active live cells and converted into a purple formazan product. The MTT stock solution was later dissolved in a phosphate buffer solution (PBS, 5 mg/ml, w/v) and, then, 5 μg/ml of MTT in DMEM was added into each well and incubated at 37°C and 5% CO2 for 4 h. DMSO (#D 8418, Sigma-Aldrich), as a dissolving solution for formazan crystals, was added into each well and placed in a shaker for 2 h. The absorbance at a test wavelength of 570 nm and a reference wavelength of 630 nm was measured on a microplate reader.

A549 cells = test: MTT cell viability assay; format: cell-based, human
Procedure: as §1, §2

HeLa cells [3] = test: MTT cell viability assay; format: cell-based, human
Procedure: as §1, §2

LN229 cells = test: MTT cell viability assay; format: cell-based, human
Procedure: as §1, §2

MDA231 cells = test: MTT cell viability assay; format: cell-based, human
Procedure: as §1, §2

PC3 cells = test: MTT cell viability assay; format: cell-based, human
Procedure: as §1, §2

U87 cells = test: MTT cell viability assay; format: cell-based, human
Procedure: as §1, §2

CHO-K1 cells = test: MTT cell viability assay (non-cancer control); format: cell-based, Chinese hamster
Procedure: as §1, §2

HeLa cells [4] = test: Matrigel invasion analysis; format: cell-based, human; settings: 6.25 and 12.5 μM, 24 h, vs negative control
Procedure: The analysis was completed with U87 and HeLa cell lines to assess the metastatic potential of tumor cells using transwell inserts with an 8 μm pore size polycarbonate membrane (Corning Costar, Cambridge, MA, USA) coated with 1/5 of Matrigel (Beckton Dickinson, Bedford, MA, USA) and air-dried at room temperature. After seeding the U87 and HeLa cell lines (3 × 10^5cells/insert), the complex concentrations were selected as 6.25 or 12.5 μM and incubated at 37°C in a humidified incubator with 5% CO2 for 24 h. The cell monolayers in the transwell inserts were fixed with ice-cold methanol and stained with 0.05% crystal violet for the analysis. The invasion of the cells to the basolateral side of the inserts was investigated using a light microscope with 40× magnification.

HeLa cells [5] = test: In vitro scratch wound healing (cell migration); format: cell-based, human; settings: 6.25 and 12.5 μM, 24, 48, and 72 h
Procedure: In vitro scratch wound healing experiments were carried out with HeLa cell lines (3 × 10^4 cells/insert), which were seeded into 6-well plates. When they reached 80–90% confluence, scratches were created using AutoScratch (BioTek) in a straight line. The same Cu(II) or Pt(II) complex concentrations (6.25 or 12.5 μM) were used and incubated in the presence of 5% CO2 at 37°C in a humidified incubator for 24, 48, and 72 h. Images were obtained at the beginning of the exposure (time 0), and repeated at the end of 24, 48, and 72 h incubation periods.

T1 sequence (P02768 25-609): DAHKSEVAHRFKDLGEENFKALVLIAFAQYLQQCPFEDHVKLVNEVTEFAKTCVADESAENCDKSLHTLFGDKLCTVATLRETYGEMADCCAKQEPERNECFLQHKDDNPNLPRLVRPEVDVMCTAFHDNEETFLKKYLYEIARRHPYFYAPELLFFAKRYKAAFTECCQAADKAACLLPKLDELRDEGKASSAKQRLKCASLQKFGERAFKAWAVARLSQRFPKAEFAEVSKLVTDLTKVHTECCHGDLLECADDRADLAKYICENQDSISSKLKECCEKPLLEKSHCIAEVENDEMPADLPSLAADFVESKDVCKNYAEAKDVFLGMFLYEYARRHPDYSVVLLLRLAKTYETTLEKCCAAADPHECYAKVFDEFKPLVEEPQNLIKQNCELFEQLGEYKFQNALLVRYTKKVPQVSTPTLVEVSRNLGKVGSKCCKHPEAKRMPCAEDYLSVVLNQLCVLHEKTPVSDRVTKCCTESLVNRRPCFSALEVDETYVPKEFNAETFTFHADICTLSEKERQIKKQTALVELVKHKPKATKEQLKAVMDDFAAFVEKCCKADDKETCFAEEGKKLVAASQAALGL

SMILES	KSV (Stern–Volmer quenching constant) (EtBr-bound CT-DNA)	KSV (Stern–Volmer quenching constant) [1]	melting point of HSA upon addition of the complex [2] [°C]	IC50 (A172 cells; A172, 24 h exposure) [µM]	IC50 (A172 cells; A172, 48 h exposure) [µM]	IC50 (A172 cells; A172, 72 h exposure) [µM]	IC50 (A549 cells; A549, 24 h exposure) [µM]	IC50 (A549 cells; A549, 48 h exposure) [µM]	IC50 (A549 cells; A549, 72 h exposure) [µM]	IC50 (HeLa cells [3]; 24 h exposure) [µM]	IC50 (HeLa cells [3]; 48 h exposure) [µM]	IC50 (HeLa cells [3]; 72 h exposure) [µM]	IC50 (LN229 cells; LN229, 24 h exposure) [µM]	IC50 (LN229 cells; LN229, 48 h exposure) [µM]	IC50 (LN229 cells; LN229, 72 h exposure) [µM]	IC50 (MDA231 cells; MDA231, 24 h exposure) [µM]	IC50 (MDA231 cells; MDA231, 48 h exposure) [µM]	IC50 (MDA231 cells; MDA231, 72 h exposure) [µM]	IC50 (PC3 cells; PC3, 24 h exposure) [µM]	IC50 (PC3 cells; PC3, 48 h exposure) [µM]	also measured
[Cl][Cu][Cl].c1ccc(-c2nc3ccc(-c4ccc5nc(-c6ccccn6)c(-c6ccccn6)nc5c4)cc3nc2-c2ccccn2)nc1 [Cu(tpbq)Cl2]	0.0105	0.0059	110	> 100	> 100	92 ± 7.46	> 100	> 100	> 100	> 100	> 100	> 100	> 100	> 100	> 100	72.1 ± 26	> 100	> 100	> 100	> 100	IC50 (PC3 cells; PC3, 72 h exposure): > 100 µM; IC50 (U87 cells; U87, 24 h exposure): 79.5 ± 26.4 µM; IC50 (U87 cells; U87, 48 h exposure): 5.49 ± 0.01 µM; IC50 (U87 cells; U87, 72 h exposure): 13.5 ± 6.06 µM; IC50 (CHO-K1 cells; CHO-K1, 24 h exposure): > 100 µM; IC50 (CHO-K1 cells; CHO-K1, 48 h exposure): > 100 µM; IC50 (CHO-K1 cells; CHO-K1, 72 h exposure): > 100 µM; anti-invasive effect (HeLa cells [4]): did not have any anti-invasive effect
[Cl][Cu][Cl].c1csc(-c2nc3ccc(-c4ccc5nc(-c6cccs6)c(-c6cccs6)nc5c4)cc3nc2-c2cccs2)c1 [Cu(ttbq)Cl2]	0.0137	0.0720	111	69.44 ± 0.19	63.9 ± 3.56	57.4 ± 13.7	73.5 ± 1.35	70.7 ± 4.09	66.9 ± 8.7	67.5 ± 2.78	74.22 ± 0.45	65 ± 2.75	42 ± 14	36 ± 6.38	54 ± 3.1	20.6 ± 2.39	32.1 ± 1.05	41 ± 0.6	65.8 ± 5.35	75.5 ± 3.16	IC50 (PC3 cells; PC3, 72 h exposure): 62.3 ± 4.02 µM; IC50 (U87 cells; U87, 24 h exposure): 31.2 ± 0.43 µM; IC50 (U87 cells; U87, 48 h exposure): 2.95 ± 0.97 µM; IC50 (U87 cells; U87, 72 h exposure): 5.75 ± 0.03 µM; IC50 (CHO-K1 cells; CHO-K1, 24 h exposure): > 100 µM; IC50 (CHO-K1 cells; CHO-K1, 48 h exposure): > 100 µM; IC50 (CHO-K1 cells; CHO-K1, 72 h exposure): > 100 µM; anti-invasive effect (HeLa cells [4]): high anti-invasive effects; migration of HeLa cells toward the scratch zone (HeLa cells [5]): declined
[Cl][Pt][Cl].c1ccc(-c2nc3ccc(-c4ccc5nc(-c6ccccn6)c(-c6ccccn6)nc5c4)cc3nc2-c2ccccn2)nc1 [Pt(tpbq)Cl2]	0.0082	0.0261	109	94.3 ± 12.3	39.4 ± 15.8	73.67 ± 0.28	> 100	58.4 ± 5.35	40.3 ± 3.42	> 100	58 ± 26.9	42.9 ± 1.69	> 100	91.9 ± 49	83.9 ± 3.16	94.8 ± 2.57	> 100	99.4 ± 5.71	> 100	> 100	IC50 (PC3 cells; PC3, 72 h exposure): > 100 µM; IC50 (U87 cells; U87, 24 h exposure): 58.4 ± 11.8 µM; IC50 (U87 cells; U87, 48 h exposure): 34.7 ± 2.16 µM; IC50 (CHO-K1 cells; CHO-K1, 24 h exposure): > 100 µM; IC50 (CHO-K1 cells; CHO-K1, 48 h exposure): 86.6 ± 1.98 µM; IC50 (CHO-K1 cells; CHO-K1, 72 h exposure): 77.5 ± 0.87 µM; anti-invasive effect (HeLa cells [4]): high anti-invasive effects; migration of HeLa cells toward the scratch zone (HeLa cells [5]): declined
[Cl][Pt][Cl].c1csc(-c2nc3ccc(-c4ccc5nc(-c6cccs6)c(-c6cccs6)nc5c4)cc3nc2-c2cccs2)c1 [Pt(ttbq)Cl2]	0.0143	0.0589	105	93.5 ± 18.4	65.5 ± 17.7	49.5 ± 5.73	95 ± 2.93	> 100	> 100	88.9 ± 8.31	79.7 ± 24.2	> 100	67.9 ± 16.3	44.8 ± 11.6	38.8 ± 1.46	85 ± 10.8	> 100	> 100	> 100	> 100	IC50 (PC3 cells; PC3, 72 h exposure): > 100 µM; IC50 (U87 cells; U87, 24 h exposure): > 100 µM; IC50 (U87 cells; U87, 48 h exposure): 9.24 ± 4.16 µM; IC50 (U87 cells; U87, 72 h exposure): 5.95 ± 1.68 µM; IC50 (CHO-K1 cells; CHO-K1, 24 h exposure): > 100 µM; IC50 (CHO-K1 cells; CHO-K1, 48 h exposure): > 100 µM; IC50 (CHO-K1 cells; CHO-K1, 72 h exposure): > 100 µM; anti-invasive effect (HeLa cells [4]): higher potency to prevent the invasion; migration of HeLa cells toward the scratch zone (HeLa cells [5]): declined
